{"source": "patent EP4786470A1", "about": "“METHOD FOR S[…]-CIT LINEAR PRECURSOR WITH HIGH PURITY, AND METHOD FOR PREPARING [18F]FP-CIT BY USING SAME” (The Asan Foundation, priority 2023, dated 2025)", "key": {"[1]": {"conditions": "cited from earlier work"}, "[2]": {"experiment": "Storage stability of FP-CIT linear precursor in storage solvent (purity over 12 months by HPLC analysis)", "assay_type": "physicochemical", "experimental": "HPLC analysis was carried out using the same experimental method and analytic conditions as in Example 1-1, except that the storage temperature was -20°C. […] The purity of the FP-CIT linear precursor over time is summarized in FIG. 4 and the following Table 3.\nHPLC analysis was carried out using the same experimental method and analytic conditions as in Example 1-1, except that the storage concentration was 8 mg/mL. […] The purity of the FP-CIT linear precursor over time is summarized in FIG. 5 and the following Table 4.\nHPLC analysis was carried out using the same experimental method and analytic conditions as in Example 3-1, except that the storage temperature was -20°C. […] The purity of the FP-CIT linear precursor over time is summarized in FIG. 5 and the following Table 4."}}, "note": "Several values for one entry are separate records, joined by “and”; a condition that tells them apart may be missing. Identical values can stand only once."}
{"smiles": "ClCCl", "note": "[Dichloromethane (DCM), Dichloromethane]", "values": [{"measurement": "Water solubility (g/100 mL, 20°C)", "setting": "[1]", "value": 1.6, "unit": "g/100 mL"}]}
{"smiles": "CCOC(C)=O", "note": "[Ethyl acetate (EA), Ethyl acetate]", "values": [{"measurement": "Water solubility (g/100 mL, 20°C)", "setting": "[1]", "value": 8.3, "unit": "g/100 mL"}]}
{"smiles": "COC(=O)C1C(c2ccc(I)cc2)CC2CCC1N2CCCOS(C)(=O)=O", "note": "(stereo not drawn) [FP-CIT linear precursor]", "values": [{"measurement": "purity of the FP-CIT linear precursor", "setting": "[2]; CHCl3, 1 mg/mL, -20°C, 0 months (start of storage assumed 100%)", "value": 100.0, "unit": "%"}, {"measurement": "purity of the FP-CIT linear precursor", "setting": "[2]; CHCl3, 1 mg/mL, -20°C, 3 months", "value": 79.4, "unit": "%"}, {"measurement": "purity of the FP-CIT linear precursor", "setting": "[2]; CHCl3, 1 mg/mL, -20°C, 5 months", "value": "65% and 65.1%"}, {"measurement": "purity of the FP-CIT linear precursor", "setting": "[2]; CHCl3, 1 mg/mL, -20°C, 7 months", "value": 57.1, "unit": "%"}, {"measurement": "purity of the FP-CIT linear precursor", "setting": "[2]; CHCl3, 1 mg/mL, -20°C, 9 months", "value": 53.2, "unit": "%"}, {"measurement": "purity of the FP-CIT linear precursor", "setting": "[2]; CHCl3, 1 mg/mL, room temperature, 0 months (start of storage assumed 100%)", "value": 100.0, "unit": "%"}, {"measurement": "purity of the FP-CIT linear precursor", "setting": "[2]; CHCl3, 1 mg/mL, room temperature, 3 months", "value": 60.4, "unit": "%"}, {"measurement": "purity of the FP-CIT linear precursor", "setting": "[2]; CHCl3, 1 mg/mL, room temperature, 7 months", "value": 2.2, "unit": "%"}, {"measurement": "purity of the FP-CIT linear precursor", "setting": "[2]; CHCl3, 1 mg/mL, room temperature, 9 months", "value": 0.7, "unit": "%"}, {"measurement": "purity of the FP-CIT linear precursor", "setting": "[2]; DCM, 1 mg/mL, -20°C, 0 months (start of storage assumed 100%)", "value": 100.0, "unit": "%"}, {"measurement": "purity of the FP-CIT linear precursor", "setting": "[2]; DCM, 1 mg/mL, -20°C, 3 months", "value": 93.5, "unit": "%"}, {"measurement": "purity of the FP-CIT linear precursor", "setting": "[2]; DCM, 1 mg/mL, -20°C, 7 months", "value": 73.2, "unit": "%"}, {"measurement": "purity of the FP-CIT linear precursor", "setting": "[2]; DCM, 1 mg/mL, -20°C, 9 months", "value": 71.3, "unit": "%"}, {"measurement": "purity of the FP-CIT linear precursor", "setting": "[2]; DCM, 1 mg/mL, room temperature, 0 months (start of storage assumed 100%)", "value": 100.0, "unit": "%"}, {"measurement": "purity of the FP-CIT linear precursor", "setting": "[2]; DCM, 1 mg/mL, room temperature, 3 months", "value": 47.0, "unit": "%"}, {"measurement": "purity of the FP-CIT linear precursor", "setting": "[2]; DCM, 1 mg/mL, room temperature, 5 months", "value": "34% and 34.2%"}, {"measurement": "purity of the FP-CIT linear precursor", "setting": "[2]; DCM, 1 mg/mL, room temperature, 7 months", "value": 30.9, "unit": "%"}, {"measurement": "purity of the FP-CIT linear precursor", "setting": "[2]; DCM, 1 mg/mL, room temperature, 9 months", "value": 13.1, "unit": "%"}, {"measurement": "purity of the FP-CIT linear precursor", "setting": "[2]; EA, 1 mg/mL, -20°C, 0 months (start of storage assumed 100%)", "value": 100.0, "unit": "%"}, {"measurement": "purity of the FP-CIT linear precursor", "setting": "[2]; EA, 1 mg/mL, -20°C, 1 month", "value": 97.5, "unit": "%"}, {"measurement": "purity of the FP-CIT linear precursor", "setting": "[2]; EA, 1 mg/mL, -20°C, 3 months", "value": 97.4, "unit": "%"}, {"measurement": "purity of the FP-CIT linear precursor", "setting": "[2]; EA, 1 mg/mL, -20°C, 5 months", "value": 96.7, "unit": "%"}, {"measurement": "purity of the FP-CIT linear precursor", "setting": "[2]; EA, 1 mg/mL, -20°C, 7 months", "value": 96.4, "unit": "%"}, {"measurement": "purity of the FP-CIT linear precursor", "setting": "[2]; EA, 1 mg/mL, -20°C, 9 months", "value": 96.4, "unit": "%"}, {"measurement": "purity of the FP-CIT linear precursor", "setting": "[2]; EA, 1 mg/mL, room temperature, 0 months (start of storage assumed 100%)", "value": 100.0, "unit": "%"}, {"measurement": "purity of the FP-CIT linear precursor", "setting": "[2]; EA, 1 mg/mL, room temperature, 3 months", "value": 91.2, "unit": "%"}, {"measurement": "purity of the FP-CIT linear precursor", "setting": "[2]; EA, 1 mg/mL, room temperature, 7 months", "value": 39.8, "unit": "%"}, {"measurement": "purity of the FP-CIT linear precursor", "setting": "[2]; EA, 1 mg/mL, room temperature, 9 months", "value": 28.4, "unit": "%"}, {"measurement": "purity of the FP-CIT linear precursor", "setting": "[2]; EA, 8 mg/mL, -20°C, 0 months (start of storage assumed 100%)", "value": 100.0, "unit": "%"}, {"measurement": "purity of the FP-CIT linear precursor", "setting": "[2]; EA, 8 mg/mL, -20°C, 1 month", "value": 99.3, "unit": "%"}, {"measurement": "purity of the FP-CIT linear precursor", "setting": "[2]; EA, 8 mg/mL, -20°C, 3 months", "value": 99.0, "unit": "%"}, {"measurement": "purity of the FP-CIT linear precursor", "setting": "[2]; EA, 8 mg/mL, -20°C, 7 months", "value": 96.7, "unit": "%"}, {"measurement": "purity of the FP-CIT linear precursor", "setting": "[2]; EA, 8 mg/mL, -20°C, 9 months", "value": 96.4, "unit": "%"}, {"measurement": "purity of the FP-CIT linear precursor", "setting": "[2]; EA, 8 mg/mL, room temperature, 0 months (start of storage assumed 100%)", "value": 100.0, "unit": "%"}, {"measurement": "purity of the FP-CIT linear precursor", "setting": "[2]; EA, 8 mg/mL, room temperature, 3 months", "value": 64.3, "unit": "%"}, {"measurement": "purity of the FP-CIT linear precursor", "setting": "[2]; EA, 8 mg/mL, room temperature, 5 months", "value": "43% and 43.3%"}, {"measurement": "purity of the FP-CIT linear precursor", "setting": "[2]; EA, 8 mg/mL, room temperature, 7 months", "value": 16.2, "unit": "%"}, {"measurement": "purity of the FP-CIT linear precursor", "setting": "[2]; EA, 8 mg/mL, room temperature, 9 months", "value": 13.5, "unit": "%"}, {"measurement": "purity of the FP-CIT linear precursor", "setting": "[2]; THF, 1 mg/mL, -20°C, 0 months (start of storage assumed 100%)", "value": 100.0, "unit": "%"}, {"measurement": "purity of the FP-CIT linear precursor", "setting": "[2]; THF, 1 mg/mL, -20°C, 1 month", "value": 98.0, "unit": "%"}, {"measurement": "purity of the FP-CIT linear precursor", "setting": "[2]; THF, 1 mg/mL, -20°C, 3 months", "value": 96.7, "unit": "%"}, {"measurement": "purity of the FP-CIT linear precursor", "setting": "[2]; THF, 1 mg/mL, -20°C, 7 months", "value": 95.1, "unit": "%"}, {"measurement": "purity of the FP-CIT linear precursor", "setting": "[2]; THF, 1 mg/mL, -20°C, 9 months", "value": 94.7, "unit": "%"}, {"measurement": "purity of the FP-CIT linear precursor", "setting": "[2]; THF, 1 mg/mL, room temperature, 0 months (start of storage assumed 100%)", "value": 100.0, "unit": "%"}, {"measurement": "purity of the FP-CIT linear precursor", "setting": "[2]; THF, 1 mg/mL, room temperature, 3 months", "value": 89.9, "unit": "%"}, {"measurement": "purity of the FP-CIT linear precursor", "setting": "[2]; THF, 1 mg/mL, room temperature, 7 months", "value": 56.6, "unit": "%"}, {"measurement": "purity of the FP-CIT linear precursor", "setting": "[2]; THF, 1 mg/mL, room temperature, 9 months", "value": 25.6, "unit": "%"}, {"measurement": "purity of the FP-CIT linear precursor", "setting": "[2]; THF, 8 mg/mL, -20°C, 0 months (start of storage assumed 100%)", "value": 100.0, "unit": "%"}, {"measurement": "purity of the FP-CIT linear precursor", "setting": "[2]; THF, 8 mg/mL, -20°C, 1 month", "value": 98.8, "unit": "%"}, {"measurement": "purity of the FP-CIT linear precursor", "setting": "[2]; THF, 8 mg/mL, -20°C, 3 months", "value": 97.5, "unit": "%"}, {"measurement": "purity of the FP-CIT linear precursor", "setting": "[2]; THF, 8 mg/mL, -20°C, 7 months", "value": 94.7, "unit": "%"}, {"measurement": "purity of the FP-CIT linear precursor", "setting": "[2]; THF, 8 mg/mL, -20°C, 9 months", "value": 94.4, "unit": "%"}, {"measurement": "purity of the FP-CIT linear precursor", "setting": "[2]; THF, 8 mg/mL, -20°C, 12 months", "value": "89% and 89.7%"}, {"measurement": "purity of the FP-CIT linear precursor", "setting": "[2]; THF, 8 mg/mL, room temperature, 0 months (start of storage assumed 100%)", "value": 100.0, "unit": "%"}, {"measurement": "purity of the FP-CIT linear precursor", "setting": "[2]; THF, 8 mg/mL, room temperature, 3 months", "value": 72.9, "unit": "%"}, {"measurement": "purity of the FP-CIT linear precursor", "setting": "[2]; THF, 8 mg/mL, room temperature, 5 months", "value": "30% and 30.4%"}, {"measurement": "purity of the FP-CIT linear precursor", "setting": "[2]; THF, 8 mg/mL, room temperature, 7 months", "value": 5.5, "unit": "%"}, {"measurement": "purity of the FP-CIT linear precursor", "setting": "[2]; THF, 8 mg/mL, room temperature, 9 months", "value": 5.5, "unit": "%"}]}
